Experiments:
Type in all cases: cell-based, mouse
neural precursor cells [1] = experiment: Differentiation of neural precursor cells into astrocytes (GFAP immunofluorescence); settings: ADT-OH 80 μmol/L; 8 days in differentiation medium
Description: (§1) • (1) Adult ICR mice (male:female 2:1) were allowed to mate randomly. At 8:00 every night, the male and female mice were co-caged. […] On day 14.5 of pregnancy of the mice, neural precursor cells were extracted.
(§2) C57BL/6J mice at day 14.5 of pregnancy were anesthetized with 4% chloral hydrate by intraperitoneal injection. The abdominal cavity of the pregnant mice was opened using sterile surgical scissors and surgical forceps, the uterus of the pregnant mice was opened and the fetal brain was taken out. […]
(§3) The cultured cells were fixed with 4% PFA for 15 min, and washed three times with 0.01 M PBS, and then immunofluorescence staining was performed with Tuj1, GFAP, MBP, and caspase3 antibodies. The plate was blocked with a DAPI-containing blocking agent (Vector Labs, H-1400), observed and photographed under a Zeiss fluorescence microscope. Tuj1-positive neurons GFAP-positive astrocytes, MBP-positive oligodendrocytes and DAPI-positive cells were counted using ImageJ and adobe photoshop, respectively. The rate of positive cells to all DAPI-positive cells was calculated. • (2) The cells were fixed with 4% PFA after 5 days of differentiation in the differentiation medium, and immunofluorescently stained with the neuron-specific antibody Tuj1. […]
The rate of GFAP positive cells to DAPI-positive cells was statistically calculated.

neural precursor cells [2] = experiment: Apoptosis of neural precursor cells (caspase3 staining); settings: ADT-OH 80 μmol/L
Method: The isolated primary neural precursor cells were cultured for 3-4 days, and the neurospheres were blown into individual cells. and inoculated in a 24-well cell culture plate lined with adhesive glass discs. The cells were grown in neural precursor cell culture medium supplemented with ADT-OH (80 μmol/L) or control solute DMSO for 3 days, respectively, and then stained with apoptosis-specific antibody caspase3. Images were collected under a fluorescence microscope, and • the rate of caspase3 positive cells to all DAPI-positive cells were statistically calculated.

neural precursor cells [3] = experiment: Differentiation of neural precursor cells into oligodendrocytes (MBP immunofluorescence); settings: ADT-OH 80 μmol/L; 5 days in differentiation medium
Description: as §1, §2, §3
The rate of MBP positive cells to all DAPI-positive cells was statistically calculated.

neural precursor cells [4] = experiment: Differentiation of neural precursor cells into neurons (Tuj1 immunofluorescence) and axonal length; settings: ADT-OH 80 μmol/L; 5 days in differentiation medium
Description: as §1
C57BL/6J mice at day 14.5 of pregnancy were anesthetized with 4% chloral hydrate by intraperitoneal injection. The abdominal cavity of the pregnant mice was opened using sterile surgical scissors and surgical forceps, the uterus of the pregnant mice was opened and the fetal brain was taken out. The fetal brain tissue in the subventricular zone was isolated under a stereomicroscope, digested with 0.05% trypsin in a water bath at 37° C. for 10 min, and then terminated with a neural precursor cell culture medium (containing DMEM-F12 medium 39.2 ml, 1×B27 800 ul, 0.2 mg/ml bEGF 4 ul, and 0.2 mg/ml FGF 8 ul), and then gently blown into individual cells. The cells were centrifuged at 700 rcf for 5 min and the supernatant was discarded. The neural precursor cell culture medium was added, and the cells were inoculated and cultured in a 24-well cell culture plate. […]
The cultured cells were fixed with 4% PFA for 15 min, and washed three times with 0.01 M PBS, and then immunofluorescence staining was performed with Tuj1, GFAP, MBP, and caspase3 antibodies. The plate was blocked with a DAPI-containing blocking agent (Vector Labs, H-1400), observed and photographed under a Zeiss fluorescence microscope. Tuj1-positive neurons GFAP-positive astrocytes, MBP-positive oligodendrocytes and DAPI-positive cells were counted using ImageJ and adobe photoshop, respectively. The rate of positive cells to all DAPI-positive cells was calculated. • (2) The cells were fixed with 4% PFA after 5 days of differentiation in the differentiation medium, and immunofluorescently stained with the neuron-specific antibody Tuj1. After staining, images were collected under a fluorescence microscope, and the rates of neurons to all DAPI-positive cells in each group were statistically calculated.

Oc1ccc(-c2cc(=S)ss2)cc1 [ADT-OH, 5-(p-hydroxyphenyl)-1,2-dithione-3-thione]
differentiation into astrocytes (GFAP positive cells to DAPI-positive cells) compared with the DMSO control group (neural precursor cells [1]): fewer cells in the ADT-OH group are differentiated into astrocytes
rate of differentiation into astrocytes, reduction compared with the DMSO control group (neural precursor cells [1]): 69.2%
apoptosis, reduction compared with the DMSO control group (neural precursor cells [2]; 3 days): 44.8%
apoptotic cells (caspase3 positive cells to all DAPI-positive cells) compared with the DMSO control group (neural precursor cells [2]; 3 days in neural precursor cell culture medium): fewer cells are apoptotic
differentiation into oligodendrocytes (MBP positive cells to all DAPI-positive cells) compared with the DMSO control group (neural precursor cells [3]): more cells are differentiated into oligodendrocytes
rate of differentiation into oligodendrocytes, increase compared with the DMSO control group (neural precursor cells [3]): 87.5%
axons of neurons (axonal length) compared with the DMSO control group (neural precursor cells [4]): longer axons
differentiation into neurons (Tuj1-positive cells to all DAPI-positive cells) compared with the DMSO control group (neural precursor cells [4]): more cells are differentiated into neurons
rate of differentiation into neurons, increase compared with the DMSO control group (neural precursor cells [4]): 57.69%
